# Laboratory results reported in patent US20020045271A1, “COMPOUNDS AND METHODS FOR IDENTIFYING COMPOUNDS THAT INTERACT WITH MICROSOMAL TRIGLYCERIDE TRANSFER PROTEIN BINDING SITES ON APOLIPOPROTEIN B AND MODULATE LIPID BIOSYNTHESIS” (LICATA AND TYRRELL P.C., priority 1998, published 2002).
# Experiments:
# [1] = biological target: T1, LDL/MTP binding (Bos taurus, UniProt P55156); assay: Effect of compounds on binding of LDL to immobilized MTP (ELISA); set-up: species or system human
# T1 sequence (P55156 12-887): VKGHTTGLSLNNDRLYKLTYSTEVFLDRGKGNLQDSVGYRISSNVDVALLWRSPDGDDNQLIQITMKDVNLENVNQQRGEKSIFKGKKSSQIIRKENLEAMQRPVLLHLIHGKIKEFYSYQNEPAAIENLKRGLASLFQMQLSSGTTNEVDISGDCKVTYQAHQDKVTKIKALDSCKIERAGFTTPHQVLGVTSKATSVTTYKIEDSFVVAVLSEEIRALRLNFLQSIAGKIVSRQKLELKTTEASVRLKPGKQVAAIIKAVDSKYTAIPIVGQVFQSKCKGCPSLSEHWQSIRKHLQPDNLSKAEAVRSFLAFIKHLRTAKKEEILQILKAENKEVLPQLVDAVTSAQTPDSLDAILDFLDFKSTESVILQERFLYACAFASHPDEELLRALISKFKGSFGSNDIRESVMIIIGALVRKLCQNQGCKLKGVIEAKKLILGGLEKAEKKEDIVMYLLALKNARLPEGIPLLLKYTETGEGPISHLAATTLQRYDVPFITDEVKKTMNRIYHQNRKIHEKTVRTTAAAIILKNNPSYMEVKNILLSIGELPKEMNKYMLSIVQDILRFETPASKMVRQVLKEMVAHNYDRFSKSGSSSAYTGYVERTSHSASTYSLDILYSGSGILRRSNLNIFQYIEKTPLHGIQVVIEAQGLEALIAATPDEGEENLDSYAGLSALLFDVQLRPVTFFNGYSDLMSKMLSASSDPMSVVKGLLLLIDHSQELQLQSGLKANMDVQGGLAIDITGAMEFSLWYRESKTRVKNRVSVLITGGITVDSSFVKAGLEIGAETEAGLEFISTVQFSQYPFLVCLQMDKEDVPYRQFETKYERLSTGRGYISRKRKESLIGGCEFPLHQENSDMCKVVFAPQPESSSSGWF
# T1 sequence (P05307 21-510 partner): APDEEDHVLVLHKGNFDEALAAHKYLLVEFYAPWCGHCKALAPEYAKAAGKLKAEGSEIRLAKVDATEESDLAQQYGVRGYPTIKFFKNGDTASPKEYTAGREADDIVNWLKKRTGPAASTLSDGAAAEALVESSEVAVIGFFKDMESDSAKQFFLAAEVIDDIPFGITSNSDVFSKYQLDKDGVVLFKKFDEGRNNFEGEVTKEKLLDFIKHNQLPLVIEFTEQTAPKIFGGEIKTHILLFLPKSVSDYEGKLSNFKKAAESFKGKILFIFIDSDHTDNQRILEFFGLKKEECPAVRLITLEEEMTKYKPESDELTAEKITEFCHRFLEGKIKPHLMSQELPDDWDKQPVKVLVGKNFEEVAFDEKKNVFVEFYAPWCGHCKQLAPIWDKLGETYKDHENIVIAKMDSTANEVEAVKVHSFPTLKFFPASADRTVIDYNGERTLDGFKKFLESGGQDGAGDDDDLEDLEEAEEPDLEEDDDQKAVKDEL
# Procedure: (§1) Studies were performed to determine whether apoB/MTP binding was required for secretion of apoB-containing lipoproteins. Several compounds were screened. In the absence of any test compound, 15.47 fmol of low density lipoproteins (LDL)which contain ApoB was bound to immobilized MTP. Two test compounds, AGI-3 and AGI-S17, inhibited 70 to 90% of the binding at 40-50 μM concentrations. […] The effect of these same compounds on MTP's lipid transfer activity was also evaluated. BMS-200150 inhibited triglyceride transfer activity by 60% at concentrations in the range of 20 to 50 μM. AGI-3 inhibited only 20-30% of the activity at these same concentrations.
# ELISA plates coated in triplicate with purified heterodimeric MTP (1 μg/well) were incubated with human LDL (1 μg/well) in the presence of indicated concentrations of various compounds. Microtiter wells were washed three times with PBS-Tween and apoB bound was quantitated by a sandwich ELISA (Hussain, M. M. et al. 1995 Arterioscl. Thronb. Vasc. Biol. 15:485-494). In parallel, a standard curve for apoB was generated by coating wells with a monoclonal antibody, 1D1, and incubating with different concentrations of LDL (0-14 ng/well) as previously described (Hussain, M. M. et al. 1995 Arterioscl. Thromb . Vasc. Biol. 15:485-494).
# [2] = biological target: T2, MTP (Bos taurus, UniProt P55156); assay: MTP triglyceride transfer activity; assay type: biochemical; conditions: 20 to 50 μM
# T2 sequence (P55156 12-887): T1 sequence (P55156 12-887)
# T2 sequence (P05307 21-510 partner): T1 sequence (P05307 21-510 partner)
# Procedure: as §1
# [3] = biological target: T1, LDL/MTP binding; assay: Effect of lipid vesicles on binding of LDL to immobilized MTP; conditions: for effect of inclusion in PC vesicles on PC-stimulated binding of LDL to MTP: added to PC vesicles
# Procedure: The effect of lipids on the binding of MTP with apoB was also examined. Phosphatidylcholine (PC) and sphingomyelin increased the interactions by 2 and 1.5 times respectively. In similar studies, PC vesicles at a concentration of 2.4 mM increased the binding of LDL to MTP by 2 to 4 times. As a control, the effect of phospholipids on the binding of LDL to the monoclonal antibody 1D1 and polyclonal antibodies was studied. 1D1 binds to a portion of the MTP specific binding site on apoB. This antibody also recognizes all subclasses of VLDL and LDL, as well as delipidated apoB. […] The effect of PC vesicles on the interaction of apoB to polyclonal antibodies was studied by incubating immobilized LDL with the antibodies both in the presence and absence of PC. PC vesicles had no effect on binding.
# To study the effect of triglycerides (TG) on apoB/MTP specific binding, PC vesicles or emulsions containing two different concentrations of TG were prepared and their effect on LDL binding to MTP was compared with those of PC vesicles with no TG.
# The effect of different lipids was studied in more detail using PC-based vesicles (Table 3). Again, PC vesicles increased the binding of LDL to MTP by 3-fold.
# Required amounts of lipids in chloroform were added to a glass vial and the solvent was evaporated under nitrogen gas. A calculated amount of the buffer (15 mM Tris-HCl, 1 mM EDTA, 0.02% sodium azide, pH 7.4) was added, and the contents were sonicated (setting 5, output 50-60%) on ice until the solution was mostly clear. The vesicles were then centrifuged at 3500 rpm for 15 minutes, 4° C., and the supernatant used to assay the effect of vesicles on binding.
# LDL (20 nM) was incubated with immobilized MTP (1 μg/ml) in the presence and absence of different concentrations of PC or sphingomyelin vesicles for 2 hours at 37° C. and the amount of LDL bound quantitated. The amount of LDL bound in the absence of lipid vesicles was used as 100%. Parallel experiments were also performed wherein LDL (78 pM) was incubated with immobilized monoclonal antibody, 1D1, instead of MTP. LDL (20 nM) was also incubated with immobilized MTP in the presence of different concentrations of PC, PC/TG (molar ratio 400:1) vesicles, or PC/TG dispersions (molar ratio 1:1) for 2 hours at 37° C., and the amount of apoB bound was quantitated by ELISA.
# [4] = biological target: T3, immobilized LDL (Homo sapiens, UniProt P04114); assay: Binding of apoA-I and apoA-I/lipid complexes to immobilized LDL
# Procedure: The binding of apoA-I and apoA-I/lipid complexes to immobilized LDL was examined. ApoA-I incubated with or without lipid vesicles was subjected to ultracentrifugation and apoA-I/lipid complexes were isolated. Binding of apoA-I and apoA-I/lipid complexes to immobilized LDL was then examined.
# Target sequence in this assay (P04114 28-4563): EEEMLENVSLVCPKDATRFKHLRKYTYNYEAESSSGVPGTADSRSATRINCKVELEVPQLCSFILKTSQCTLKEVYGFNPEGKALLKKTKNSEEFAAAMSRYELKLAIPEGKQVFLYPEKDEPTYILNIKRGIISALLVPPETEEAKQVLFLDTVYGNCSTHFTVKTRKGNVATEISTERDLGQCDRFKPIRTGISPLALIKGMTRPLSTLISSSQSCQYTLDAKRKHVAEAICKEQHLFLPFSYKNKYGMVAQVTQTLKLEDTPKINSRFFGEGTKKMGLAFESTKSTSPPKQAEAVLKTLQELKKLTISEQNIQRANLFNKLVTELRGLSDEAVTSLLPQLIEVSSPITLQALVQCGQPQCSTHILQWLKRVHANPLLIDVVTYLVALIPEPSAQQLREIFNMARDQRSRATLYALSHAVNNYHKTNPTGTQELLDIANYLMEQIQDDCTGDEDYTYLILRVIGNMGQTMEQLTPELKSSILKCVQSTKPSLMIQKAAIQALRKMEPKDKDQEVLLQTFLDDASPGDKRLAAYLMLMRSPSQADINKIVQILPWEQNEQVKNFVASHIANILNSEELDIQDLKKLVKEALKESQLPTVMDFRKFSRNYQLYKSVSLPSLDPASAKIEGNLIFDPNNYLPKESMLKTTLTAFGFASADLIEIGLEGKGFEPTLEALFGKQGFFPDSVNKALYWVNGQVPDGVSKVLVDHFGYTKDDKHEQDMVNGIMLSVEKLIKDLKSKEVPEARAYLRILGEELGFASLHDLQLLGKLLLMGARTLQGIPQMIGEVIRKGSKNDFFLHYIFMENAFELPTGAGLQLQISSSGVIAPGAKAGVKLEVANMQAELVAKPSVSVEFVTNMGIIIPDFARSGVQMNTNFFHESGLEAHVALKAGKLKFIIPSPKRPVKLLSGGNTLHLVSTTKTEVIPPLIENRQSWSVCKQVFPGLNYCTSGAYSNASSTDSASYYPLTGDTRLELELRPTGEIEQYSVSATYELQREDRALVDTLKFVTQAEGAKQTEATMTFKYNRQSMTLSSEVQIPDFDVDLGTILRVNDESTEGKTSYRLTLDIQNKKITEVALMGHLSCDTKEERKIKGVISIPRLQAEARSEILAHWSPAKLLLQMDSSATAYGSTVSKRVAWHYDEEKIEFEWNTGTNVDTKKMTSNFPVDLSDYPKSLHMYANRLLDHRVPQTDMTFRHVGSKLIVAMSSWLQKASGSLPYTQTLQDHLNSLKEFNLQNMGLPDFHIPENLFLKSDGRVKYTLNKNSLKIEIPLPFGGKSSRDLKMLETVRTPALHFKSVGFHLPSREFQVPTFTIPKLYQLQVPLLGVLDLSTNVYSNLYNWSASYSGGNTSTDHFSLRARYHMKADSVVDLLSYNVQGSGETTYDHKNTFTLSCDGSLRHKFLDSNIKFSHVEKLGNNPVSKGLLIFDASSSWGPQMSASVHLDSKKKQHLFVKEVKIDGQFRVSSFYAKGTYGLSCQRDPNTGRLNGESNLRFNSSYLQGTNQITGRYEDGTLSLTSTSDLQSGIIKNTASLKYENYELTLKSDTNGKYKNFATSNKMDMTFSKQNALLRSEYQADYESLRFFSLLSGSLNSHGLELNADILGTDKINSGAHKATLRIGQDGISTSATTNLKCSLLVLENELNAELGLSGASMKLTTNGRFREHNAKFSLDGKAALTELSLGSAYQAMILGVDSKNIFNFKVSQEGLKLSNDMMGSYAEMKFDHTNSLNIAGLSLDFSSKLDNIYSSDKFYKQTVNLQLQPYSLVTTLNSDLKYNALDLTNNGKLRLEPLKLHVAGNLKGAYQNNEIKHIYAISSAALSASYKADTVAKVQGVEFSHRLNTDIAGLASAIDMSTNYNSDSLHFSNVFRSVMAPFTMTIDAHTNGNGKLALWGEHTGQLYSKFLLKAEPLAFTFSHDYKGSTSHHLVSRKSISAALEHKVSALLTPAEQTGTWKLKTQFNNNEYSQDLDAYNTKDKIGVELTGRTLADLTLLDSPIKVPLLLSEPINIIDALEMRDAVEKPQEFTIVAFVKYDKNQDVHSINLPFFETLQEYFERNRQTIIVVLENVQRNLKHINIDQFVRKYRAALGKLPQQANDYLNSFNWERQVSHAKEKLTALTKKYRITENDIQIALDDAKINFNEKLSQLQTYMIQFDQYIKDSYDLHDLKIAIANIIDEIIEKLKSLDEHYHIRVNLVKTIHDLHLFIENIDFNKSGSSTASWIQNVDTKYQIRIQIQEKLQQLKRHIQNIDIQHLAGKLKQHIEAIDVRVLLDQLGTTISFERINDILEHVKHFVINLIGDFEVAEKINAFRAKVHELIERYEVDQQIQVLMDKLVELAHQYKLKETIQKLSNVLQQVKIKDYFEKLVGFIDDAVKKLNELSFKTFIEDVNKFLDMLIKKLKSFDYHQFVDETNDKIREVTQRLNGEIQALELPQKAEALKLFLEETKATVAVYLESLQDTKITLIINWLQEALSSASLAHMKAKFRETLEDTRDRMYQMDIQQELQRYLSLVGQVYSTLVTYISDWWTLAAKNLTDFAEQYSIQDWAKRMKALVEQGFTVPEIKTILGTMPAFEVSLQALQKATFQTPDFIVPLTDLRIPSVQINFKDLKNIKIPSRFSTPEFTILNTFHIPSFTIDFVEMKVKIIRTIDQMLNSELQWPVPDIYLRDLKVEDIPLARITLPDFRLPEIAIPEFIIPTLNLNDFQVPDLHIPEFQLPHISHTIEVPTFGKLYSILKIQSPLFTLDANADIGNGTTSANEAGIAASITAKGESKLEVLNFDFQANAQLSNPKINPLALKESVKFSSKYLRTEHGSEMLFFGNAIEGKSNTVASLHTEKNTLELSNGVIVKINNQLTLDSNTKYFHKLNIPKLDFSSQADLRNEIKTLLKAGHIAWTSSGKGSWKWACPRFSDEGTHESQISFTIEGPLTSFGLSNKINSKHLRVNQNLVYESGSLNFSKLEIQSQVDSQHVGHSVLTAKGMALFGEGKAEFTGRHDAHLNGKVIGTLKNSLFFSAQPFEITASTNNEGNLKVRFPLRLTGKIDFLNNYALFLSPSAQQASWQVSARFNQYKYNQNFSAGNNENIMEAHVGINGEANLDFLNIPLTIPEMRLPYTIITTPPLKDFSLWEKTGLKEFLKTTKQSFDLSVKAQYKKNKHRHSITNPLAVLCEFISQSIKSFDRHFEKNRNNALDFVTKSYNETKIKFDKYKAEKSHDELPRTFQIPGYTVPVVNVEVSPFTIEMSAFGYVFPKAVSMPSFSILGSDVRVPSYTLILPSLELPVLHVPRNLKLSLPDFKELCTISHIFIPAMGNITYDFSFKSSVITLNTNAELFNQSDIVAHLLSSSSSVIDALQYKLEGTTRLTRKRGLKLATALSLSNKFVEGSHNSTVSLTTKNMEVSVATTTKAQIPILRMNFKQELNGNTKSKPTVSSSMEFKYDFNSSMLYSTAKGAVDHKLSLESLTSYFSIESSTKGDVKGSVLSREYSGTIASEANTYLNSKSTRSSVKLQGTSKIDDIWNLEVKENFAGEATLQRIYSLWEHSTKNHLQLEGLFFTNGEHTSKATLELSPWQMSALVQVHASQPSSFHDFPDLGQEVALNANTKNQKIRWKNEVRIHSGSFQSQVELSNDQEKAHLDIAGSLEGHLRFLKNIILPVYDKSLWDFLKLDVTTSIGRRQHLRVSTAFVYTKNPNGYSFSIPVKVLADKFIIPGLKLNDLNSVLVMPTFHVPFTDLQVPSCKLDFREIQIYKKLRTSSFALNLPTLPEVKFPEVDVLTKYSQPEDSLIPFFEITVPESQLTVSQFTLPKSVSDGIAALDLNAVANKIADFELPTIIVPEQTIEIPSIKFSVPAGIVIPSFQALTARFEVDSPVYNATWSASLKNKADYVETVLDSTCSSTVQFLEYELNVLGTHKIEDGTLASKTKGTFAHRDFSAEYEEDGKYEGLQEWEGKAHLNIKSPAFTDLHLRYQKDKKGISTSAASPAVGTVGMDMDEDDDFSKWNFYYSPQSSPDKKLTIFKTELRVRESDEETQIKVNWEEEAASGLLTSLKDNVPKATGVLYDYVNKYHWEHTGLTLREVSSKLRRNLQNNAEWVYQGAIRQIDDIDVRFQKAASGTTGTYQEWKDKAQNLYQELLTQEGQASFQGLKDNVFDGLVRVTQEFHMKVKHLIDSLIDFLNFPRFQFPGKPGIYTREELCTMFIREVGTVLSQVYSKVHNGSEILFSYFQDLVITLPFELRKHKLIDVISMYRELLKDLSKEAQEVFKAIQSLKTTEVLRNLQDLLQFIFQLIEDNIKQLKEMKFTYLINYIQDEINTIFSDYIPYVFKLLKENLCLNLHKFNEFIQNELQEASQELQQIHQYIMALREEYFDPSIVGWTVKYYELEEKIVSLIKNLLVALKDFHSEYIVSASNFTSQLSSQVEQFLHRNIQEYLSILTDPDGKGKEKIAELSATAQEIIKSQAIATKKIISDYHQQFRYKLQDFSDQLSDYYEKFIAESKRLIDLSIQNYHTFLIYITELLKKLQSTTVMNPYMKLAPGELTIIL
# [5] = biological target: T3, immobilized LDL; assay: Binding of 125I-MTP / MTP fractions to immobilized LDL
# Procedure: The effect of phospholipids on the kinetic parameters of apoB-MTP binding was examined. […] No significant binding of LDL to MTP could be observed at low concentrations (≦3 nM) in the absence of vesicles. However, the effect of vesicles was significant at ≦12.5 nM of LDL. […] In four other experiments, decreases in Kd ranged between 1.5- to 3-fold. The effect of phospholipid vesicles on the binding of ^125I-MTP to immobilized LDL was also examined.
# To study the binding of lipid associated MTP with LDL, peaks A, B, and C were pooled, dialyzed and then used to study binding to immobilized LDL. The binding of lipid-poor MTP (peak B), which might have acquired few lipid molecules during its incubation with lipid vesicles, to LDL was increased (70%, P<0.005) compared to the binding of MTP not incubated with lipids (peak A). […] These studies indicate that lipid-associated MTP binds better to LDL as compared to lipid-poor and lipid-free MTP. It is believed that MTP forms stable complexes with phospholipid vesicles and these MTP/lipid complexes have higher affinity for apoB.
# Target sequence in this assay (P04114 28-4563, one chain of several): as the sequence (P04114 28-4563) above
compound,measurement,setting,value
O=C1c2ccccc2CN1C1CCN(CCC(c2ccccc2)c2ccccc2)CC1 [BMS-200150],effect on LDL/MTP binding,[1],did not effect LDL/MTP binding
same,inhibition of triglyceride transfer activity,[2],60%
CC(C)CCC[C@@H](C)[C@H]1CC[C@H]2[C@@H]3CC=C4C[C@@H](O)CC[C@]4(C)[C@H]3CC[C@]12C [cholesterol],effect of inclusion in PC vesicles on PC-stimulated binding of LDL to MTP,[3],no additional effect
"apoA-I/lipid complexes: apoA-I incubated with lipid vesicles, complexes isolated by ultracentrifugation",binding to immobilized LDL compared to free apoA-I,[4],significantly less
"peak B: lipid-poor MTP fraction recovered after incubation with PC vesicles, fractions 21-24",increase of binding to immobilized LDL compared to MTP not incubated with lipids (peak A),[5]; P<0.005,70%
"peak C: MTP associated with lipid vesicles, fractions 3-9",amount bound to LDL compared to MTP alone,[5],three-fold higher
phosphatidyl inositol [PI],effect of inclusion in PC vesicles on PC-stimulated binding of LDL to MTP,[3],significantly decreased
phosphatidyl serine [PS],effect of inclusion in PC vesicles on PC-stimulated binding of LDL to MTP,[3],significantly decreased
triglycerides [TG],effect on LDL binding to MTP,[3]; PC vesicles with or without TG,no additional effect
